Assay results published in PubChem BioAssay (NCI).
Values joined by “and” are separate entries in the source; they are usually repeats but may differ in a detail not shown here. Equal entries are not always repeated.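 In this assay, cells in 96-well plates receive the compound at five concentrations for 48 hours. Endpoints are linearly interpolated between the surrounding concentrations. GI50: concentration for 50% inhibition of growth. Definition used: TGI = concentration required for complete inhibition of growth.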 Where a SMILES comes first, the peptide text is derived from it. [ ]: non-standard residue; d: D form. The star is where a group is joined. ξ: configuration not given here. ξPhe(4-NO2) = NC(Cc1ccc([N+](=O)[O-])cc1)C(=O)O; Boc = CC(C)(C)OC(=O)*; OBn = c1ccc(CO*)cc1

Columns and labels:
Experiment in all cases: NCI tumour cell line growth inhibition, 48 h
HOP-62 NSCLC = test system: HOP-62 NSCLC
MDA-N = test system: MDA-N
K-562 leukemia = test system: K-562 leukemia
BT-549 breast = test system: BT-549 breast
RXF 393 renal = test system: RXF 393 renal
SNB-75 CNS = test system: SNB-75 CNS
CCRF-CEM leukemia = test system: CCRF-CEM leukemia
OVCAR-5 ovarian = test system: OVCAR-5 ovarian
CAKI-1 renal = test system: CAKI-1 renal
MDA-MB-435 = test system: MDA-MB-435
MOLT-4 leukemia = test system: MOLT-4 leukemia
NCI-H460 lung = test system: NCI-H460 lung
NCI-H23 lung = test system: NCI-H23 lung
RPMI-8226 leukemia = test system: RPMI-8226 leukemia
HCT-116 colon = test system: HCT-116 colon
OVCAR-4 ovarian = test system: OVCAR-4 ovarian

Row | Structure (SMILES) | TGI (HOP-62 NSCLC) | TGI (MDA-N) | TGI (K-562 leukemia) | TGI (BT-549 breast) | TGI (RXF 393 renal) | TGI (SNB-75 CNS) | TGI (CCRF-CEM leukemia) | TGI (OVCAR-5 ovarian) | TGI (CAKI-1 renal) | TGI (MDA-MB-435) | TGI (MOLT-4 leukemia) | TGI (NCI-H460 lung) | TGI (NCI-H23 lung) | TGI (RPMI-8226 leukemia) | TGI (HCT-116 colon) | TGI (OVCAR-4 ovarian) | GI50 (RXF 393 renal) | GI50 (SNB-75 CNS) | GI50 (OVCAR-5 ovarian) | GI50 (CAKI-1 renal)
1 | CC1=CCC[C@@](C)(O)[C@@H]2C[C@H]3C(CSc4ccccc4)C(=O)O[C@H]3[C@@H](O2)[C@H](C)CCC1 (stereo partly drawn) | 34.5 µM | 86.2 µM | > 100 µM | 46.2 µM | 30.4 µM | 31.1 µM | > 100 µM | 30.7 µM | 64.6 µM | 72 µM | > 100 µM | 20.4 µM | 33.8 µM | 84 µM | > 100 µM | 45 µM |  |  |  | 
2 | Cc1ccc(S(=O)(=O)NC(=O)NCC(=O)NCC(=O)O)cc1 | > 100 µM | > 100 µM | > 100 µM | > 100 µM | > 100 µM | > 100 µM | > 100 µM | > 100 µM | > 100 µM | > 100 µM | > 100 µM | > 100 µM | > 100 µM | > 100 µM | > 100 µM | > 100 µM |  |  |  | 
3 | CC(C)(C)OC(=O)NC(Cc1ccc([N+](=O)[O-])cc1)C(=O)NCC(=O)OCc1ccccc1 (stereo not drawn) (Boc-[ξPhe(4-NO2)]-Gly-OBn) | 36.7 µM | 39.8 µM | 52.3 µM | 59.6 µM | 53.1 µM | 41.5 µM | 48.8 µM | > 100 µM | 27.7 µM | 33.2 µM | 48.1 µM | 49.4 µM | 47.5 µM | 45.9 µM | 68.2 µM | > 100 µM |  |  |  | 
4 | COc1ccc(C2SC(N)=Nc3c2c(C)nn3C(=O)c2ccc(Cl)cc2)cc1 (stereo not drawn) | > 10 µM | > 10 µM | > 10 µM | > 10 µM | > 10 µM | > 10 µM | > 10 µM | > 10 µM | > 10 µM | > 10 µM | > 10 µM | > 10 µM | > 10 µM | > 10 µM | > 10 µM | > 10 µM |  |  |  | 
5 | COc1ccc(OC)c(NC(=O)C(=O)Nn2c(=S)[nH]c3ccccc3c2=O)c1 | > 100 µM | > 100 µM | > 100 µM | > 100 µM | > 100 µM | > 100 µM | > 100 µM | > 100 µM | > 100 µM | > 100 µM | > 100 µM | > 100 µM | > 100 µM | > 100 µM | > 100 µM | > 100 µM |  |  |  | 
6 | COc1cc(C)cc2c1C(=O)C(Br)=CC2=O | 32.5 µM | 8.16 µM |  | 23.2 µM | 8.36 µM | 31.7 µM | 3.92 µM | 36.6 µM | 3.18 µM | 5.68 µM | 5.19 µM | 38.4 µM | 39.4 µM |  | 18.6 µM | 7.71 µM |  |  |  | 
7 | CC(=O)OCC1OC(n2c3c(c(-c4ccc(Cl)cc4)c(C#N)c2=S)C(=O)CC(C)(C)C3)C(OC(C)=O)C(OC(C)=O)C1OC(C)=O (stereo not drawn) | > 100 µM | > 54.8 µM | > 100 µM | 12.8 µM | 68.8 µM | 44.3 µM | > 100 µM | > 100 µM | > 31.9 µM | > 69.6 µM | > 100 µM | > 100 µM | > 100 µM | > 100 µM | > 100 µM | > 100 µM |  |  |  | 
8 | Cc1cnc2[nH]c(-c3ccc(F)cc3)cc(=O)c2c1 | > 83.1 µM | 8.87 µM | 47 µM | > 100 µM | > 100 µM | 62.8 µM | > 100 µM | > 100 µM | > 100 µM | 12.6 µM | > 91.5 µM | > 100 µM | > 100 µM | > 73.3 µM | > 100 µM | > 100 µM |  |  |  | 
9 | Cc1ccc(S(=O)(=O)[N-]C2C(=O)c3ccccc3C(=O)C2[n+]2cccc(C(N)=O)c2)cc1 (stereo not drawn) | > 100 µM | > 100 µM | > 100 µM | > 100 µM | > 100 µM | > 100 µM | > 100 µM | > 100 µM | > 100 µM | > 100 µM | > 100 µM | > 100 µM | > 100 µM | > 100 µM | 36 µM | > 100 µM |  |  |  | 
10 | CN(C)CCOC1(Cc2ccc(Cl)cc2Cl)CCC(C(C)(C)C)CC1 (stereo not drawn) | 3.06 µM and 3.32 µM | 3.31 µM | 3.77 µM and 3.94 µM | 3.16 µM and 3.25 µM | 3.11 µM and 3.28 µM | 3.89 µM and 7.39 µM | 4.69 µM and 5.32 µM | 5.54 µM and 3.55 µM | 4.35 µM and 10.6 µM | 2.89 µM and 3.18 µM | 4.72 µM and 4.23 µM | 3.18 µM and 2.66 µM | 5.74 µM and 4.15 µM | 4.92 µM and 5.42 µM | 3.13 µM and 3.45 µM | 3.87 µM and 3.85 µM | 1.68 µM | 2.52 µM | 2.09 µM | 5.18 µM
11 | NC(C(F)(F)F)(C(F)(F)F)P(=O)(c1ccccc1)c1ccccc1 | > 100 µM | > 100 µM | > 100 µM | > 100 µM | > 100 µM | > 100 µM | > 100 µM | > 100 µM | > 100 µM | > 100 µM | > 100 µM | > 100 µM | > 100 µM | > 100 µM | > 100 µM | > 100 µM |  |  |  | 
12 | Cc1cc(S(=O)(=O)Nc2nc(N)nc(N3CCOCC3)n2)c(SCC(=O)O)cc1Cl | > 10 µM | > 10 µM | > 10 µM | > 10 µM | > 10 µM | > 10 µM | > 10 µM | > 10 µM | > 10 µM |  | > 10 µM | > 10 µM | > 10 µM | > 10 µM | > 10 µM | > 10 µM |  |  |  | 
13 | CC(C)C[C@H](NC(=O)CCc1ccccc1)B(O)O | 46.9 µM | 7.27 µM | 62.7 µM | 57.6 µM | 19.1 µM |  | 7.33 µM | 40.2 µM | 25.2 µM | 7.79 µM | 11.4 µM | 52.9 µM | > 100 µM | 6.11 µM | 18.6 µM | > 100 µM |  |  |  | 
14 | COc1cc2c(cc1OC)C1C(O)C(OC)C=C3CC[N+](C)(C2)C31 (stereo not drawn) | > 100 µM | > 100 µM |  | > 100 µM | > 100 µM | > 100 µM | > 100 µM | > 100 µM | > 100 µM | > 100 µM | > 100 µM | > 100 µM | > 100 µM | > 100 µM | > 100 µM | > 100 µM |  |  |  | 
